{"source": "patent US7579359B2", "about": "“1-alkoxy 1H-imidazo ring systems and methods” (3M Innovative Properties Company, priority 2004, dated 2009)", "data": [{"units": {"melting point": "°C"}, "values": [{"compound": "CCCc1nc2c(N)nc3ccccc3c2n1OC", "note": "[Example 1, 1-Methoxy-2-propyl-1H-imidazo[4,5-c]quinolin-4-amine]", "melting point": "210 to 211"}, {"compound": "CCCc1nc2c(N)nc3ccccc3c2n1OCc1ccccc1", "note": "[Example 2, 1-Benzyloxy-2-propyl-1H-imidazo[4,5-c]quinolin-4-amine]", "melting point": "164 to 166"}, {"compound": "CCCc1nc2c(N)nc3ccccc3c2n1OCC", "note": "[Example 3, 1-Ethoxy-2-propyl-1H-imidazo[4,5-c]quinolin-4-amine]", "melting point": "198 to 199"}, {"compound": "CCc1nc2c(N)nc3ccccc3c2n1OC", "note": "[Example 4, 2-Ethyl-1-methoxy-1H-imidazo[4,5-c]quinolin-4-amine]", "melting point": "216 to 217"}, {"compound": "CCc1nc2c(N)nc3ccccc3c2n1OC(C)C", "note": "[Example 5, 2-Ethyl-1-isopropoxy-1H-imidazo[4,5-c]quinolin-4-amine]", "melting point": "242 to 243"}, {"compound": "Cc1nc2c(N)nc3ccccc3c2n1OC(C)C", "note": "[Example 6, 1-Isopropoxy-2-methyl-1H-imidazo[4,5-c]quinolin-4-amine]", "melting point": 243}, {"compound": "COn1c(C)nc2c(N)nc3ccccc3c21", "note": "[Example 7, 1-Methoxy-2-methyl-1H-imidazo[4,5-c]quinolin-4-amine]", "melting point": "237 to 238"}, {"compound": "Cc1nc2c(N)nc3ccccc3c2n1OCC(C)C", "note": "[Example 8, 1-Isobutoxy-2-methyl-1H-imidazo[4,5-c]quinolin-4-amine]", "melting point": "215 to 216"}, {"compound": "CCOn1c(C)nc2c(N)nc3ccccc3c21", "note": "[Example 9, 1-Ethoxy-2-methyl-1H-imidazo[4,5-c]quinolin-4-amine]", "melting point": "219 to 221"}, {"compound": "COn1c(-c2ccccc2)nc2c(N)nc3ccccc3c21", "note": "[Example 10, 1-Methoxy-2-phenyl-1H-imidazo[4,5-c]quinolin-4-amine]", "melting point": "241 to 243"}, {"compound": "CC(C)On1c(-c2ccccc2)nc2c(N)nc3ccccc3c21", "note": "[Example 11, 1-Isopropoxy-2-phenyl-1H-imidazo[4,5-c]quinolin-4-amine]", "melting point": "188 to 191"}, {"compound": "CC(C)On1c(C2CCCCC2)nc2c(N)nc3ccccc3c21", "note": "[Example 12, 2-Cyclohexyl-1-isopropoxy-1H-imidazo[4,5-c]quinolin-4-amine]", "melting point": "175 to 178"}, {"compound": "COn1c(C2CCCCC2)nc2c(N)nc3ccccc3c21", "note": "[Example 13, 2-Cyclohexyl-1-methoxy-1H-imidazo[4,5-c]quinolin-4-amine]", "melting point": "220 to 222"}, {"compound": "CC(C)On1c(C(C)(C)C)nc2c(N)nc3ccccc3c21", "note": "[Example 14, 2-Tert-butyl-1-isopropoxy-1H-imidazo[4,5-c]quinolin-4-amine]", "melting point": "187 to 189"}, {"compound": "COn1c(C(C)(C)C)nc2c(N)nc3ccccc3c21", "note": "[Example 15, 2-Tert-butyl-1-methoxy-1H-imidazo[4,5-c]quinolin-4-amine]", "melting point": "195 to 197"}, {"compound": "Nc1nc2ccccc2c2c1nc(-c1ccccc1)n2OCc1ccccc1", "note": "[Example 16, 1-(Benzyloxy)-2-phenyl-1H-imidazo[4,5-c]quinolin-4-amine]", "melting point": "177 to 179"}, {"compound": "CCOCc1nc2c(N)nc3ccccc3c2n1OC(C)C", "note": "[Example 18, 2-(Ethoxymethyl)-1-isopropoxy-1H-imidazo[4,5-c]quinolin-4-amine]", "melting point": "179 to 181"}, {"compound": "CC(C)On1c(CO)nc2c(N)nc3ccccc3c21", "note": "[Example 19]", "melting point": "204 to 206"}, {"compound": "CCOn1cnc2c(N)nc3ccccc3c21", "note": "[Example 20, 1-Ethoxy-1H-imidazo[4,5-c]quinolin-4-amine]", "melting point": "179 to 181"}, {"compound": "COn1cnc2c(N)nc3ccccc3c21", "note": "[Example 22, 1-Methoxy-1H-imidazo[4,5-c]quinolin-4-amine]", "melting point": "238 to 240"}, {"compound": "CC(C)On1cnc2c(N)nc3ccccc3c21", "note": "[Example 23, 1-Isopropoxy-1H-imidazo[4,5-c]quinolin-4-amine]", "melting point": "224 to 225"}, {"compound": "CCCc1nc2c(N)nc3ccccc3c2n1O", "note": "[Example 24, 4-Amino-2-propyl-1H-imidazo[4,5-c]quinolin-1-ol]", "melting point": "232 to 235"}, {"compound": "COn1c(C(C)C)nc2c(N)nc3ccccc3c21", "note": "[Example 25, 2-Isopropyl-1-methoxy-1H-imidazo[4,5-c]quinolin-4-amine]", "melting point": "217 to 219"}, {"compound": "CC(C)On1c(C(C)C)nc2c(N)nc3ccccc3c21", "note": "[Example 26, 1-Isopropoxy-2-isopropyl-1H-imidazo[4,5-c]quinolin-4-amine]", "melting point": "177 to 179"}, {"compound": "CCCCc1nc2c(N)nc3ccccc3c2n1OC", "note": "[Example 27, 2-Butyl-1-methoxy-1H-imidazo[4,5-c]quinolin-4-amine]", "melting point": "197 to 199"}, {"compound": "CCCCc1nc2c(N)nc3ccccc3c2n1OC(C)C", "note": "[Example 28, 2-Butyl-1-isopropoxy-1H-imidazo[4,5-c]quinolin-4-amine]", "melting point": "118 to 119"}, {"compound": "Cc1nc2c(N)nc3ccccc3c2n1OCc1ccccc1[N+](=O)[O-]", "note": "[Example 29, 2-Methyl-1-[(2-nitrobenzyl)oxy]-1H-imidazo[4,5-c]quinolin-4-amine]", "melting point": "215 to 217"}, {"compound": "Cc1nc2c(N)nc3ccccc3c2n1OC(C)(C)C", "note": "[Example 30, 1-tert-Butoxy-2-methyl-1H-imidazo[4,5-c]quinolin-4-amine]", "melting point": "255 to 257"}, {"compound": "Cc1nc2c(N)nc3ccccc3c2n1OCCOc1ccccc1", "note": "[Example 31, 2-Methyl-1-(2-phenoxyethoxy)-1H-imidazo[4,5-c]quinolin-4-amine]", "melting point": "237 to 239"}, {"compound": "CCCc1nc2c(N)nc3ccccc3c2n1OCC(N)=O", "note": "[Example 33, 2-[(4-Amino-2-propyl-1H-imidazo[4,5-c]quinolin-1-yl)oxy]acetamide]", "melting point": "192 to 194"}]}]}
